According to publication PMC6992361 (Molecular cancer therapeutics, 2019):

Experiments:
[1] = tested on: monolayer of endothelial cells; experiment: Transendothelial electrical impedance assay; type: cell-based; conditions: S1P at 10 nM
[2] = tested on: 786-O RCC tumor xenograft; type: in vivo; conditions: 786-O xenograft; sunitinib 50 mg/kg, Ex82 30mg/kg daily by gavage
[3] = tested on: 786-O RCC tumor xenograft; experiment: Arterial spin labeled MRI of tumor blood flow; type: in vivo, mouse; conditions: day 26 +/- 4 days
[4] = tested on: 786-O RCC tumor xenograft; experiment: Multiplexed immunohistochemistry analysis of tumors; type: in vivo, mouse; conditions: 786-O xenograft tumors

| SMILES | electrical impedance of endothelial monolayer [1] | tumor growth [2] | tumor blood flow (ASL MRI) [3] | S1P1 expression in tumors [4] | percent area of TUNEL [4] [%] | percent area of tumor vessels (CD34) [4] [%] |
| --- | --- | --- | --- | --- | --- | --- |
| CCCCCCCCCCCCC/C=C/[C@@H](O)[C@@H](N)COP(=O)(O)O [S1P, sphingosine-1-phosphate] | strongly increases electrical impedance | – | – | – | – | – |
| CCN(CC)CCNC(=O)c1c(C)[nH]c(/C=C2\C(=O)Nc3ccc(F)cc32)c1C [sunitinib] | – | slowed tumor growth | lower tumor blood flow than vehicle | significantly reduced | 10.9 | 7.2 |
